In US4464467A, “Antitumor antibiotics produced by new streptomyces” (Bristol-Myers Company, priority 1982, dated 1984):

Experiments:
lymphatic leukemia P388 = test: Antitumor activity against leukemia P388, second experiment (Table 10); format: in vivo, male BDF1 mice; details: for Survivors Day 5 / Survivors Day 22 / Average weight change / MST % T/C: QD 1→9; for antitumor activity against leukemia P388 (in words): second experiment, ip, once daily for 9 days, comparative
Description: In this experiment lymphatic leukemia P388 was implanted intraperitoneally into male BDF1 mice at an inoculum size of 10^6 cells per mouse. Test compounds were dissolved in 0.9% saline containing 10% dimethylsulfoxide. Graded doses of test compounds were administered to mice intraperitoneally 24 hours after the tumor implantation, and the treatment was continued once daily for 9 days.
Tumor inoculum: 10^6 ascites cells implanted
Treatment: QD 1→9, i.p.
Evaluation: MST = median survival
Effect: % T/C = (MST treated/MST control) ×
Criteria: % T/C ≥125 considered as significant antitumor activity

P388 mouse leukemia = P388 mouse leukemia test (comparison of 2-hydroxy isomers); format: in vivo; details: β-hydroxy versus α-hydroxy isomers
Source text: The diastereoisomers of BBM-2040A and B of the present invention have been disclosed in Symposium Papers of the 24th Symposium on the Chemistry of Natural Products (Osaka, Japan, Oct. 13-16, 1981): Paper #72, pp. 552-559. Compounds 31b and 32b in this paper have the structures [drawing 2] and may be differentiated from BBM-2040A and B of the present invention in the configuration of the C-2 hydroxy group, i.e. BBM-2040A and B have the C-2 hydroxy group in the α-configuration while the corresponding 31b and 32b diastereoisomers have the β-configuration at the C-2 hydroxy group.

[1] = Acute toxicity, single intraperitoneal administration; parameters: species or system mice (ddY strain); details: mouse, in vivo, ip, ddY mice
Description: The intraperitoneal LD50 of neothramycin has been reported to be 20-30 mg/kg.

[2] = test system: lymphocytic leukemia P388; test: Antitumor activity against leukemia P388 in mice (Table 9); format: in vivo, mice (BDF1 strain); details: first experiment; ip, qd 1→9; comparative
Description: The antitumor activity of BBM-2040A and B was determined in mice (BDF1 strain) against lymphocytic leukemia P388. Each mouse was inoculated intraperitoneally with 10^6 cells of tumor. Graded doses of test compounds were administered to mice intraperitoneally 24 hours after the tumor implantation. The treatments were given once daily for 9 days (qd 1→9 schedule). Neothramycin was comparatively tested as a reference compound.
*ratio of median survival time of test and control animals

[3] = test system: Streptococcus pyogenes, Micrococcus luteus, Micrococcus flavus and Mycobacterium strains; test: Antibacterial activity, agar dilution; format: cell-based; details: against Streptococcus pyogenes
Description: The minimum inhibitory concentration (MIC) of BBM-2040 was determined for a variety of gram-positive, gram-negative and acid-fast bacteria by the serial two-fold agar dilution method. Nutrient agar medium was used for gram-positive and gram-negative organisms and No. 1001 medium (3% glycerol, 0.3% sodium L-glutamate, 0.2% peptone, 0.31% Na2 HPO4, 0.1% KH2 PO4, 0.005% ammonium citrate, 0.001% MgSO4 and 1.5% agar) for acid-fast organisms.

[4] = in benzene, chloroform and n-hexane
[5] = in ethyl acetate, acetone and water
[6] = in methanol, ethanol, n-butanol and pyridine

Q: For `COc1cc2c(cc1O)N[C@H](OC)[C@@H]1C[C@@H](O)CN1C2=O` [2β-Hydroxy epimer of BBM-2040 A], which “Survivors Day 5” value (lymphatic leukemia P388; 0.03 mg/kg/day ip) is on record?
A: Its value is 6/6.

Q: What about the “Survivors Day 22” value (lymphatic leukemia P388; 0.03 mg/kg/day ip) of the same compound?
A: Its value is 0/6.

Q: What about the “Survivors Day 5” value (lymphatic leukemia P388; 0.1 mg/kg/day ip) of the same compound?
A: Its value is 6/6.

Q: And the “Survivors Day 22” value (lymphatic leukemia P388; 0.1 mg/kg/day ip)?
A: The value was 0/6.

Q: What about the “Survivors Day 5” value (lymphatic leukemia P388; 0.3 mg/kg/day ip) of the same compound?
A: The value was 6/6.

Q: And the “Survivors Day 22” value (lymphatic leukemia P388; 0.3 mg/kg/day ip)?
A: Its value is 0/6.

Q: And the “Survivors Day 5” value (lymphatic leukemia P388; 1 mg/kg/day ip)?
A: Its value is 6/6.

Q: And the “Survivors Day 22” value (lymphatic leukemia P388; 1 mg/kg/day ip)?
A: The value was 0/6.

Q: With `COc1cc2c(cc1O)N[C@H](OC)[C@@H]1C[C@@H](O)CN1C2=O` [31b, reference compound] as the compound, how does the “antitumor activity in the P388 mouse leukemia test (in words)” value (P388 mouse leukemia) read?
A: Its value is “essentially devoid of antitumor activity”.

Q: For `COc1cc2c(cc1O)N=C[C@@H]1C[C@@H](O)CN1C2=O` [32b, reference compound], which “antitumor activity in the P388 mouse leukemia test (in words)” value (P388 mouse leukemia) is on record?
A: The value was “essentially devoid of antitumor activity”.

Q: For `COc1cc2c(cc1O)N[C@H](OC)[C@@H]1C[C@H](O)CN1C2=O` [BBM-2040A, (2S, 11aS)-5,10,11,11a-tetrahydro-2,8-dihydroxy-7,11-dimethoxy-5-oxo-1H-pyrrolo(2,1-c) (1,4)benzodiazepine], which “antitumor activity in the P388 mouse leukemia test (in words)” value (P388 mouse leukemia) is on record?
A: Its value is “marked activity”.

Q: What about the Average weight change (lymphatic leukemia P388; 0.1 mg/kg/day ip) of the same compound?
A: Its Average weight change is “+1.5 g”.

Q: What about the “MST % T/C” value (lymphatic leukemia P388; 0.1 mg/kg/day ip) of the same compound?
A: The value was 100%.

Q: And the “Survivors Day 5” value (lymphatic leukemia P388; 0.1 mg/kg/day ip)?
A: Its value is 6/6.

Q: And the “Survivors Day 22” value (lymphatic leukemia P388; 0.1 mg/kg/day ip)?
A: The value was 0/6.

Q: What about the Average weight change (lymphatic leukemia P388; 0.3 mg/kg/day ip) of the same compound?
A: Its Average weight change is “+1.3 g”.

Q: And the “MST % T/C” value (lymphatic leukemia P388; 0.3 mg/kg/day ip)?
A: The value was 117%.

Q: What about the “Survivors Day 5” value (lymphatic leukemia P388; 0.3 mg/kg/day ip) of the same compound?
A: Its value is 6/6.

Q: What about the “Survivors Day 22” value (lymphatic leukemia P388; 0.3 mg/kg/day ip) of the same compound?
A: Its value is 0/6.

Q: And the “MST % T/C” value (lymphatic leukemia P388; 1 mg/kg/day ip)?
A: The value was 133%.

Q: What about the “Survivors Day 5” value (lymphatic leukemia P388; 1 mg/kg/day ip) of the same compound?
A: Its value is 6/6.

Q: And the “Survivors Day 22” value (lymphatic leukemia P388; 1 mg/kg/day ip)?
A: Its value is 0/6.

Q: What about the “MST % T/C” value (lymphatic leukemia P388; 3 mg/kg/day ip) of the same compound?
A: Its value is 142%.

Q: What about the “Survivors Day 5” value (lymphatic leukemia P388; 3 mg/kg/day ip) of the same compound?
A: The value was 6/6.

Q: What about the “Survivors Day 22” value (lymphatic leukemia P388; 3 mg/kg/day ip) of the same compound?
A: The value was 0/6.

Q: And the “MST % T/C” value (lymphatic leukemia P388; 10 mg/kg/day ip)?
A: The value was 163%.

Q: What about the “Survivors Day 5” value (lymphatic leukemia P388; 10 mg/kg/day ip) of the same compound?
A: The value was 6/6.

Q: What about the “Survivors Day 22” value (lymphatic leukemia P388; 10 mg/kg/day ip) of the same compound?
A: Its value is 1/6.

Q: What about the “antitumor activity against leukemia P388 (in words)” value (lymphatic leukemia P388) of the same compound?
A: The value was “similarly active”.

Q: What about the LD50 [1] of the same compound?
A: The LD50 was 34 mg/kg.

Q: And the “antitumor activity against leukemia P388 (in words)” value [2]?
A: The value was “similarly active”.

Q: And the “antibacterial activity (in words)” value [3]?
A: Its value is “weak antibacterial activity”.

Q: And the solubility (Solubility; [4])?
A: Its solubility is “practically insoluble”.

Q: What about the solubility (Solubility; [5]) of the same compound?
A: Its solubility is “slightly soluble”.

Q: What about the solubility (Solubility; [6]) of the same compound?
A: The solubility was “readily soluble”.

Q: What does the source list for `COc1cc2c(cc1O)N=C[C@@H]1C[C@H](O)CN1C2=O` [BBM-2040B]?
A: antitumor activity in the P388 mouse leukemia test (in words) (P388 mouse leukemia): marked activity; LD50 [1]: 57 mg/kg; antitumor activity against leukemia P388 (in words) [2]: somewhat less active than BBM-2040A; antibacterial activity (in words) [3]: weak antibacterial activity; stability in solutions (Stability in solutions): relatively unstable; solubility (Solubility; [4]): practically insoluble; solubility (Solubility; [5]): slightly soluble; solubility (Solubility; [6]): readily soluble

Q: Which results are given for `COc1cc2c(cc1O)N=CC1CCC(O)N1C2=O` (stereo not drawn) [Neothramycin]?
A: MST % T/C (lymphatic leukemia P388; 0.1 mg/kg/day ip): 108%; Survivors Day 5 (lymphatic leukemia P388; 0.1 mg/kg/day ip): 6/6; Survivors Day 22 (lymphatic leukemia P388; 0.1 mg/kg/day ip): 0/6; MST % T/C (lymphatic leukemia P388; 0.3 mg/kg/day ip): 121%; Survivors Day 5 (lymphatic leukemia P388; 0.3 mg/kg/day ip): 6/6; Survivors Day 22 (lymphatic leukemia P388; 0.3 mg/kg/day ip): 0/6; MST % T/C (lymphatic leukemia P388; 1 mg/kg/day ip): 142%; Survivors Day 5 (lymphatic leukemia P388; 1 mg/kg/day ip): 6/6; Survivors Day 22 (lymphatic leukemia P388; 1 mg/kg/day ip): 0/6; MST % T/C (lymphatic leukemia P388; 3 mg/kg/day ip): 146%; Survivors Day 5 (lymphatic leukemia P388; 3 mg/kg/day ip): 6/6; Survivors Day 22 (lymphatic leukemia P388; 3 mg/kg/day ip): 0/6; antitumor activity against leukemia P388 (in words) (lymphatic leukemia P388): similarly active; antitumor activity against leukemia P388 (in words) [2]: similarly active
